{
  "source": "patent US4701458A",
  "about": "(priority 1985, dated 1987)",
  "key": {"ST": {"system": "ST", "details": "cited from earlier work"}, "[1]": {"system": "Escherichia coli heat-stable enterotoxin (ST)-induced intestinal fluid secretion", "type": "in vivo, suckling mice", "details": "mouse, in vivo"}, "guanylate cyclase [2]": {"biological_target": "guanylate cyclase (Rattus norvegicus, UniProt P23897)", "sequence (P23897 23-1072)": "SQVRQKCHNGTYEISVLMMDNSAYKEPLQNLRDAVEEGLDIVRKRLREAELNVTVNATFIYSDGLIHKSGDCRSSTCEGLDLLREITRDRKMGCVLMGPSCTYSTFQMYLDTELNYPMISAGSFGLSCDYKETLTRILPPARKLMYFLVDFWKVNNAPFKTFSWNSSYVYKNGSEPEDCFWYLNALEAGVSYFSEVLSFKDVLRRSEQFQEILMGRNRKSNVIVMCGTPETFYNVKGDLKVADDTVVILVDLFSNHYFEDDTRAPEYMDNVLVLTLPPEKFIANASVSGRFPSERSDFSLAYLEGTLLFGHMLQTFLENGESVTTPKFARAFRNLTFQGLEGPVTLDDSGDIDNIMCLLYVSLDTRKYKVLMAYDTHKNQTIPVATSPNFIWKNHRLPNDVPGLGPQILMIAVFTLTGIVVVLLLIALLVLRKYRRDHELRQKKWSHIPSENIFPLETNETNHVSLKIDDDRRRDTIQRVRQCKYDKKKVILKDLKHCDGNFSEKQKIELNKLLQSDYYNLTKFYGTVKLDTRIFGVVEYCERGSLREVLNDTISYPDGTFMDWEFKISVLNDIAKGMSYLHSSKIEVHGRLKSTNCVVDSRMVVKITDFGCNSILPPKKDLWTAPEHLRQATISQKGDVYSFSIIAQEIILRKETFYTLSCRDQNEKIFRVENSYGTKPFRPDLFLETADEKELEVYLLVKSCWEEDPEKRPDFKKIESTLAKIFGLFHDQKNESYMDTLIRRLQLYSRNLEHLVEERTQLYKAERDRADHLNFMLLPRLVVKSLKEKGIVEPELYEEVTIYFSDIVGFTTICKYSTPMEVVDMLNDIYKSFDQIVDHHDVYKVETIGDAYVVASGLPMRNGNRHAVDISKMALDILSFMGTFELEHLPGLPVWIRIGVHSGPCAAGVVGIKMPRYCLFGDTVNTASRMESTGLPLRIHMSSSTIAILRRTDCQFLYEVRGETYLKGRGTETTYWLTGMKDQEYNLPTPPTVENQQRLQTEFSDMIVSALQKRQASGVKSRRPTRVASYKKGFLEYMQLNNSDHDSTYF", "assay": "biochemical", "parameters": "species or system Sprague-Dawley rat", "details": "for % Inhibition of ST-activated guanylate cyclase activity: ST-activated (6 units/ml); for % Inhibition of ST-activated guanylate cyclase activity / inhibition at 1000 µM: 1.0 mM; for inhibition at 10000 µM: 10 mM; for inhibition at 100 µM: 0.1 mM"}, "[3]": {"system": "8-bromo cyclic GMP-induced intestinal fluid secretion", "parameters": "species or system suckling mice", "details": "mouse, in vivo"}, "[4]": {"system": "basal intestinal fluid secretion", "parameters": "species or system suckling mice", "details": "mouse, in vivo"}, "guanylate cyclase [5]": {"system": "guanylate cyclase", "details": "cited from earlier work"}, "[6]": {"system": "intestinal fluid secretion", "details": "in vivo; cited from earlier work"}, "[7]": {"details": "read-out: % Inhibition of ST-activated guanylate cyclase activity, ST-activated (6 units/ml)"}, "[8]": {"details": "read-out: % Inhibition of basal guanylate cyclase activity, basal"}, "[9]": {"details": "read-out: inhibition of ST-activated guanylate cyclase activity, ST-activated (6 ST units/ml)"}, "[10]": {"details": "read-out: inhibition of basal guanylate cyclase activity, basal"}},
  "note": "Where “and” joins values, the source holds several entries; their conditions need not be identical. Identical values can stand only once. Entries after “also recorded” stand apart in the source; their conditions may differ. Like-named read-outs stand apart in the source and are kept apart here.",
  "data": [
    {"smiles": "O[C@H](CS)[C@H](O)CS", "note": "(racemic) [dithiothreitol]", "values": [
      {"measurement": "effect on biological activity of ST (in words)", "setting": "ST", "result": "loses biological activity promptly"}
    ]},
    {"smiles": "COc1ccc2cc3[n+](cc2c1OC)CCc1cc2c(cc1-3)OCO2", "note": "[berberine]", "values": [
      {"measurement": "intestinal-fluid ratio ± SEM", "setting": "[1]", "result": ".122 ± 0.003"},
      {"measurement": "intestinal-fluid ratio, pre-treatment", "setting": "[1]", "result": ".122 ± .004"}
    ]},
    {"smiles": "N[C@@H](CS)C(=O)O", "note": "[L-cysteine]", "values": [
      {"measurement": "% Inhibition of ST-activated guanylate cyclase activity", "setting": "guanylate cyclase [2]", "result": 11, "unit": "%"},
      {"measurement": "effect on basal guanylate cyclase activity (in words)", "setting": "guanylate cyclase [2]; 1 mM", "result": "did not alter basal guanylate cyclase activity; also recorded: None of the other sulfhydryl compounds (1 mM) affected basal enzyme activity"},
      {"measurement": "inhibition at 1000 µM", "setting": "guanylate cyclase [2]; [7]", "result": "11 to 21", "unit": "%"},
      {"measurement": "inhibition at 1000 µM", "setting": "guanylate cyclase [2]; [8]", "result": 0, "unit": "%"},
      {"measurement": "intestinal fluid ratio (intestinal weight to remaining body weight), ST-induced", "setting": "[1]", "result": "0.0680±0.001 and 0.0877±0.006"},
      {"measurement": "effect on ST-induced fluid responses (in words)", "setting": "[1]; sc", "result": "neither D- or L-cysteine inhibited ST-induced fluid responses"},
      {"measurement": "Intestinal:Body Wt. Ratio, 8-bromo cyclic GMP-induced", "setting": "[3]", "result": "0.1097 ± 0.004"},
      {"measurement": "Intestinal:Body Wt. Ratio, 8-bromo cyclic GMP-induced", "setting": "[3]; sc", "result": "0.1051 ± 0.006"},
      {"measurement": "effect on basal intestinal fluid level (in words)", "setting": "[4]; sc", "result": "No effect on basal fluid level"}
    ]},
    {"smiles": "NCCCNCCSP(=O)(O)O", "note": "[S-2-(3-aminopropylamino) ethyl phosphorothioic acid]", "values": [
      {"measurement": "Ratio ± SEM, ST-induced", "setting": "[1]", "result": "0.1034 ± 0.008 and 0.0685 ± 0.003"}
    ]},
    {"smiles": "COc1ccc(O)c(C(C)(C)C)c1", "note": "[Butylated hydroxyanisole]", "values": [
      {"measurement": "effect on ST activation of guanylate cyclase (in words)", "setting": "guanylate cyclase [5]", "result": "significantly reduces"},
      {"measurement": "effect on ST-induced intestinal fluid secretion (in words)", "setting": "[6]", "result": "significantly reduces"}
    ]},
    {"smiles": "NCCSSCCN", "note": "[Cystamine, cystamine]", "values": [
      {"measurement": "inhibition at 1000 µM", "setting": "guanylate cyclase [2]; [7]", "result": 73, "unit": "%"},
      {"measurement": "inhibition at 1000 µM", "setting": "guanylate cyclase [2]; [8]", "result": 45, "unit": "%"},
      {"measurement": "inhibition at 10000 µM", "setting": "guanylate cyclase [2]; [9]", "result": 82, "unit": "%"},
      {"measurement": "inhibition at 10000 µM", "setting": "guanylate cyclase [2]; [10]", "result": 54, "unit": "%"},
      {"measurement": "inhibition at 100 µM", "setting": "guanylate cyclase [2]; read-out: reduction in basal guanylate cyclase activity, basal", "result": 13, "unit": "%"},
      {"measurement": "inhibition at 100 µM", "setting": "guanylate cyclase [2]; read-out: reduction of ST-induced guanylate cyclase activity, ST-activated (6 ST units/ml)", "result": 32, "unit": "%"},
      {"measurement": "effect on ST-induced secretion (in words)", "setting": "[1]", "result": "did not significantly affect ST-induced secretion"},
      {"measurement": "effect on ST-induced secretion (in words)", "setting": "[1]; sc", "result": "reduce ST-induced intestinal secretion; also recorded: significantly reduce secretion; also recorded: significantly reduced ST-induced secretion"},
      {"measurement": "intestinal fluid ratio (intestinal weight to remaining body weight), ST-induced", "setting": "[1]; sc", "result": "0.0935±0.003 and 0.1154± 0.006"},
      {"measurement": "Intestinal:Body Wt. Ratio, 8-bromo cyclic GMP-induced", "setting": "[3]", "result": "0.1188 ± 0.003"},
      {"measurement": "effect on 8-bromo cyclic GMP-induced intestinal secretion (in words)", "setting": "[3]", "result": "no effect"},
      {"measurement": "Intestinal:Body Wt. Ratio, 8-bromo cyclic GMP-induced", "setting": "[3]; sc", "result": "0.1115 ± 0.003"},
      {"measurement": "effect on basal intestinal fluid level (in words)", "setting": "[4]; sc", "result": "did not significantly alter basal intestinal fluid levels"},
      {"measurement": "effect on guanylate cyclase (in words)", "setting": "guanylate cyclase [5]", "result": "very marked effects on guanylate cyclase activity; also recorded: almost completely inactivate"}
    ]},
    {"smiles": "N[C@@H](CCSC[C@H](N)C(=O)O)C(=O)O", "note": "[Cystathionine, cystathionine]", "values": [
      {"measurement": "effect on ST-activated guanylate cyclase activity (in words)", "setting": "guanylate cyclase [2]; ST-activated, concentration not given", "result": "no effect"},
      {"measurement": "effect on basal guanylate cyclase activity (in words)", "setting": "guanylate cyclase [2]; concentration not given", "result": "no effect"},
      {"measurement": "effect on ST-induced fluid secretion (in words)", "setting": "[1]", "result": "no alteration"},
      {"measurement": "effect on ST-induced fluid secretion (in words)", "setting": "[1]; sc", "result": "did not inhibit ST-induced fluid secretion"},
      {"measurement": "Intestinal:Body Wt. Ratio, 8-bromo cyclic GMP-induced", "setting": "[3]", "result": "0.1043 ± 0.002"},
      {"measurement": "effect on 8-bromo cyclic GMP-induced intestinal secretion (in words)", "setting": "[3]", "result": "no alteration"},
      {"measurement": "Intestinal:Body Wt. Ratio, 8-bromo cyclic GMP-induced", "setting": "[3]; sc", "result": "0.1175 ± 0.004"},
      {"measurement": "effect on basal responses (in words)", "setting": "[4]", "result": "no alteration"},
      {"measurement": "effect on basal secretion (in words)", "setting": "[4]; sc", "result": "nor alter the basal secretory ratio"}
    ]},
    {"smiles": "NCCS", "note": "[Cysteamine, cysteamine]", "values": [
      {"measurement": "% Inhibition of ST-activated guanylate cyclase activity", "setting": "guanylate cyclase [2]", "result": 21, "unit": "%"},
      {"measurement": "% Inhibition of ST-activated guanylate cyclase activity", "setting": "guanylate cyclase [2]; listed as cysteamine", "result": 21, "unit": "%"},
      {"measurement": "effect on basal guanylate cyclase activity (in words)", "setting": "guanylate cyclase [2]; 1 mM", "result": "did not alter basal guanylate cyclase activity; also recorded: did not affect basal activity"},
      {"measurement": "inhibition at 1000 µM", "setting": "guanylate cyclase [2]; [7]", "result": "11 to 21", "unit": "%"},
      {"measurement": "inhibition at 1000 µM", "setting": "guanylate cyclase [2]; [8]", "result": 0, "unit": "%"},
      {"measurement": "inhibition at 10000 µM", "setting": "guanylate cyclase [2]; [9]", "result": 63, "unit": "%"},
      {"measurement": "inhibition at 10000 µM", "setting": "guanylate cyclase [2]; [10]", "result": 15, "unit": "%"},
      {"measurement": "P of inhibition of ST-induced secretion (FIG. 2)", "setting": "[1]", "result": "< 0.001"},
      {"measurement": "effect on ST-induced fluid secretion (in words)", "setting": "[1]", "result": "most effective inhibitory agent"},
      {"measurement": "effect on ST-induced secretion (in words)", "setting": "[1]", "result": "significantly reduced; also recorded: reduced secretion"},
      {"measurement": "intestinal fluid ratio (intestinal weight to remaining body weight), ST-induced", "setting": "[1]", "result": "0.0804±0.005"},
      {"measurement": "intestinal-fluid ratio ± SEM", "setting": "[1]", "result": ".125 ± 0.003"},
      {"measurement": "intestinal-fluid ratio ± SEM, experiment #1", "setting": "[1]", "result": ".127 ± .007"},
      {"measurement": "intestinal-fluid ratio ± SEM, experiment #2", "setting": "[1]", "result": ".119 ± .006"},
      {"measurement": "effect on ST-induced ratio (in words)", "setting": "[1]; sc", "result": "not significantly changed"},
      {"measurement": "intestinal fluid ratio (intestinal weight to remaining body weight), ST-induced", "setting": "[1]; sc", "result": "0.0765±0.003 and 0.0840 ± 0.005"},
      {"measurement": "Intestinal:Body Wt. Ratio, 8-bromo cyclic GMP-induced", "setting": "[3]", "result": "0.1106 ± 0.010"},
      {"measurement": "Intestinal:Body Wt. Ratio, 8-bromo cyclic GMP-induced", "setting": "[3]; sc", "result": "0.1071 ± 0.005"},
      {"measurement": "effect on basal secretion (in words)", "setting": "[4]", "result": "did not alter basal secretion"},
      {"measurement": "effect on basal fluid level (in words)", "setting": "[4]; sc", "result": "not affected"}
    ]}
  ]
}
